Results published in patent US8283353B2, “Fused ring compound and use thereof” (Takeda Pharmaceutical Company Limited, priority 2009, dated 2012).

Assays:
human AT1 receptor = target: T1, human AT1 receptor (Homo sapiens, UniProt P30556); assay: AT1 receptor antagonistic activity: [125I]-angiotensin II binding assay on human AT1 receptor-expressing CHO-K1 cellular membrane fraction; settings: 22.5 pM [125I]-angiotensin II, 1 hr room temperature
T1 construct: expressed in transfected cells; membrane fraction
T1 sequence (P30556 1-359): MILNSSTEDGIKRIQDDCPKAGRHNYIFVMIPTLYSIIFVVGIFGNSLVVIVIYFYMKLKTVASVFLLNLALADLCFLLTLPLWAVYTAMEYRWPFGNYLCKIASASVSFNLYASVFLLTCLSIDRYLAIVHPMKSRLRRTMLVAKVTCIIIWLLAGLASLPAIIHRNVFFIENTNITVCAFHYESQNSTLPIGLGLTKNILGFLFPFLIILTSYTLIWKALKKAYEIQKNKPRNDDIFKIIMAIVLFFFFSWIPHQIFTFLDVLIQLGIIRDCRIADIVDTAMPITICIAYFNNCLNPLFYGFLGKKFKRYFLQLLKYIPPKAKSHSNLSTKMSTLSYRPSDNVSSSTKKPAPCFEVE
Method in brief: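 Competition binding used radiolabelled angiotensin II on stably transfected CHO-K1 membrane fractions in Tris pH 7.4/MgCl2 buffer, optionally containing 0.3 mg/mL fatty acid-free BSA, 1 hr at room temperature. Filtration onto GF/C separated bound tracer, and nonspecific binding was measured with candesartan.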

human PPARγ = target: T2, human PPARγ (Homo sapiens, UniProt P37231); assay: PPARγ agonistic activity: luciferase reporter assay in PPARγ:RXRα:4ERPP/CHO-K1 cells; assay type: cell-based; settings: CHO-K1, test compound 10^−6 M; luciferase activity of control compound X (1 μM) = 100%, non-administration group = 0%
T2 construct: expressed in transfected cells
T2 sequence (P37231 1-477 isoform P37231-2): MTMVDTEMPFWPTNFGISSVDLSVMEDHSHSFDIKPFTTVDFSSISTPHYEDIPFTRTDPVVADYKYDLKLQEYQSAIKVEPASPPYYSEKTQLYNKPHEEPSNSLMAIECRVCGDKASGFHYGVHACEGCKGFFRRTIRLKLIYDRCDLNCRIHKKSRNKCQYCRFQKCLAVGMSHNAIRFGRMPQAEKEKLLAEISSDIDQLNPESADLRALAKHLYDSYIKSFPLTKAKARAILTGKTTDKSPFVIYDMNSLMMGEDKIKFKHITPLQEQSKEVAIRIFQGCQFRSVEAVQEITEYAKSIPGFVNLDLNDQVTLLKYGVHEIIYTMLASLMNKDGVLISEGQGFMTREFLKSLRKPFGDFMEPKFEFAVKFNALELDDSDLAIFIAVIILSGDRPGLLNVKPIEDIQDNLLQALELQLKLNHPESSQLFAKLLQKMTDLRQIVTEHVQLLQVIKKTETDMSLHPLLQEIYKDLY
T2 sequence (P19793 1-462 partner): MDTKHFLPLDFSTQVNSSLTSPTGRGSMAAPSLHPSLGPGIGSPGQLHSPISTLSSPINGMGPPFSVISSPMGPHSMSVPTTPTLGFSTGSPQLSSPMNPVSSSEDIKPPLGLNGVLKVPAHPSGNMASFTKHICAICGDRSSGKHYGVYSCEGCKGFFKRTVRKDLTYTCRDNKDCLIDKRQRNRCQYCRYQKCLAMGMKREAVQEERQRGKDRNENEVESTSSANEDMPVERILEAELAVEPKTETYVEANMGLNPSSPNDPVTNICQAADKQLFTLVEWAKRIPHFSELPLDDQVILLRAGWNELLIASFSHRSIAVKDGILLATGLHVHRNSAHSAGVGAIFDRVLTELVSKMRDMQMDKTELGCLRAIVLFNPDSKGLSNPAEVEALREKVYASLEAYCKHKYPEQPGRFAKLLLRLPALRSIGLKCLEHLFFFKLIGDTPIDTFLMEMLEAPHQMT
Method in brief: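 CHO-K1 cells stably carrying hPPARγ/RXRα and a 4ERPP luciferase reporter, dosed with test compound for 1 day at 37 °C in Ham's F12 with 0.1% fatty acid-free BSA. Luciferase read by luminescence; activity given as % of 1 μM control compound X (100%) versus untreated (0%).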

SMILES	IC50 (human AT1 receptor) [nM]	activation at 1 µM (human PPARγ) [%]
CCCc1c(Cc2ccc(-c3ccccc3-c3noc(=O)[nH]3)cc2)c(=O)n([C@H]2CC[C@H](OC/C(C)=N/OC)CC2)c2ncnn12 [Example 216, 4-(trans-4-{[(2E)-2-(methoxyimino)propyl]oxy}cyclohexyl)-6-{[2′-(5-oxo-4,5-dihydro-1,2,4-oxadiazol-3-yl)biphenyl-4-yl]methyl}-7-propyl[1,2,4]triazolo[1,5-a]pyrimidin-5(4H)-one]	1.6	23
CCCc1c(Cc2ccc(-c3ccccc3-c3noc(=O)[nH]3)cc2)c(=O)n(C2CCCCC2)c2nc(C)nn12 [Example 78, 4-cyclohexyl-2-methyl-6-{[2′-(5-oxo-4,5-dihydro-1,2,4-oxadiazol-3-yl)biphenyl-4-yl]methyl}-7-propyl[1,2,4]triazolo[1,5-a]pyrimidin-5(4H)-one]	1.8	21
CCCc1c(Cc2ccc(-c3ccccc3-c3noc(=O)[nH]3)cc2)c(=O)n(C2CCC3(CC2)OC(=O)C(C)(C)O3)c2ncnn12 (stereo not shown) [Example 290, 4-(2,2-dimethyl-3-oxo-1,4-dioxaspiro[4.5]dec-8-yl)-6-{[2′-(5-oxo-4,5-dihydro-1,2,4-oxadiazol-3-yl)biphenyl-4-yl]methyl}-7-propyl[1,2,4]triazolo[1,5-a]pyrimidin-5(4H)-one]	3.2	25
CCCc1c(Cc2ccc(-c3ccccc3-c3noc(=O)[nH]3)cc2)c(=O)n([C@H]2CC[C@H](OCC3(O)CCC3)CC2)c2ncnn12 [Example 338, 4-{trans-4-[(1-hydroxycyclobutyl)methoxy]cyclohexyl}-6-{[2′-(5-oxo-4,5-dihydro-1,2,4-oxadiazol-3-yl)biphenyl-4-yl]methyl}-7-propyl[1,2,4]triazolo[1,5-a]pyrimidin-5(4H)-one]	1.6	36
CCCc1c(Cc2ccc(-c3ccccc3-c3noc(=O)[nH]3)cc2)c(=O)n([C@H]2CC[C@H](c3cnco3)CC2)c2ncnn12 [Example 184, 4-[trans-4-(1,3-oxazol-5-yl)cyclohexyl]-6-{[2′-(5-oxo-4,5-dihydro-1,2,4-oxadiazol-3-yl)biphenyl-4-yl]methyl}-7-propyl[1,2,4]triazolo[1,5-a]pyrimidin-5(4H)-one]	2.5	41
CCCc1c(Cc2ccc(-c3ccccc3-c3noc(=O)[nH]3)cc2)c(=O)n(C2CCC(OCCOC)CC2)c2ncnn12 (stereo not shown) [Example 154, 4-[4-(2-methoxyethoxy)cyclohexyl]-6-{[2′-(5-oxo-4,5-dihydro-1,2,4-oxadiazol-3-yl)biphenyl-4-yl]methyl}-7-propyl[1,2,4]triazolo[1,5-a]pyrimidin-5(4H)-one]	2.1	33
CCCc1c(Cc2ccc(-c3ccccc3-c3noc(=O)[nH]3)cc2F)c(=O)n(C2CCCOC2)c2ncnn12 (stereo not shown) [Example 121, 6-{[3-fluoro-2′-(5-oxo-4,5-dihydro-1,2,4-oxadiazol-3-yl)biphenyl-4-yl]methyl}-7-propyl-4-(tetrahydro-2H-pyran-3-yl)[1,2,4]triazolo[1,5-a]pyrimidin-5(4H)-one]	1.9	31
CCCc1c(Cc2ccc(-c3ccccc3-c3noc(=O)[nH]3)cc2)c(=O)n(C2CCC(=CCO)CC2)c2ncnn12 (stereo not shown) [Example 191, 4-[4-(2-hydroxyethylidene)cyclohexyl]-6-{[2′-(5-oxo-4,5-dihydro-1,2,4-oxadiazol-3-yl)biphenyl-4-yl]methyl}-7-propyl[1,2,4]triazolo[1,5-a]pyrimidin-5(4H)-one]	1.6	34
CCCc1c(Cc2ccc(-c3ccccc3-c3noc(=O)[nH]3)cc2)c(=O)n(Cc2ccc(F)cc2)c2ncnn12 [Example 4, 4-(4-fluorobenzyl)-6-{[2′-(5-oxo-4,5-dihydro-1,2,4-oxadiazol-3-yl)biphenyl-4-yl]methyl}-7-propyl[1,2,4]triazolo[1,5-a]pyrimidin-5(4H)-one]	2.6	39
CCCc1c(Cc2ccc(-c3ccccc3-c3noc(=O)[nH]3)cc2)c(=O)n([C@H]2CC[C@H](Oc3ccc(O)cc3)CC2)c2ncnn12 [Example 273, 4-[trans-4-(4-hydroxyphenoxy)cyclohexyl]-6-{[2′-(5-oxo-4,5-dihydro-1,2,4-oxadiazol-3-yl)biphenyl-4-yl]methyl}-7-propyl[1,2,4]triazolo[1,5-a]pyrimidin-5(4H)-one]	1.7	48

Continued by falling IC50 (human AT1 receptor), values first:

IC50 (human AT1 receptor) [nM]	activation at 1 µM (human PPARγ) [%]	SMILES
2.5	30	CCCc1c(Cc2ccc(-c3ccccc3-c3noc(=O)[nH]3)cc2)c(=O)n([C@H]2CC[C@](C)(OCCO)CC2)c2ncnn12 [Example 183, 4-[trans-4-(2-hydroxyethoxy)-4-methylcyclohexyl]-6-{[2′-(5-oxo-4,5-dihydro-1,2,4-oxadiazol-3-yl)biphenyl-4-yl]methyl}-7-propyl[1,2,4]triazolo[1,5-a]pyrimidin-5(4H)-one]
2.2	16	CCCc1c(Cc2ccc(-c3ccccc3-c3noc(=O)[nH]3)cc2)c(=O)n(C2CCOCC2)c2ncnn12 [Example 109, 6-{[2′-(5-oxo-4,5-dihydro-1,2,4-oxadiazol-3-yl)biphenyl-4-yl]methyl}-7-propyl-4-(tetrahydro-2H-pyran-4-yl)[1,2,4]triazolo[1,5-a]pyrimidin-5(4H)-one]
2.2	42	CCCc1c(Cc2ccc(-c3ccccc3-c3noc(=O)[nH]3)cc2)c(=O)n([C@H]2CC[C@@H](Oc3ccc(O)cc3)CC2)c2ncnn12 [Example 274, 4-[cis-4-(4-hydroxyphenoxy)cyclohexyl]-6-{[2′-(5-oxo-4,5-dihydro-1,2,4-oxadiazol-3-yl)biphenyl-4-yl]methyl}-7-propyl[1,2,4]triazolo[1,5-a]pyrimidin-5(4H)-one]
2.1	17	CCCc1c(Cc2ccc(-c3ccccc3-c3noc(=O)[nH]3)cc2)c(=O)n(CC(C)(C)C)c2ncnn12 [Example 9, 4-(2,2-dimethylpropyl)-6-{[2′-(5-oxo-4,5-dihydro-1,2,4-oxadiazol-3-yl)biphenyl-4-yl]methyl}-7-propyl[1,2,4]triazolo[1,5-a]pyrimidin-5(4H)-one]
1.9	53	C=CCOC1CCC(n2c(=O)c(Cc3ccc(-c4ccccc4-c4noc(=O)[nH]4)cc3)c(CCC)n3ncnc23)CC1 (stereo not shown) [Example 153, 6-{[2′-(5-oxo-4,5-dihydro-1,2,4-oxadiazol-3-yl)biphenyl-4-yl]methyl}-4-[4-(prop-2-en-1-yloxy)cyclohexyl]-7-propyl[1,2,4]triazolo[1,5-a]pyrimidin-5(4H)-one]
1.7	18	CCCc1c(Cc2ccc(-c3ccccc3-c3noc(=O)[nH]3)cc2)c(=O)n(Cc2ccc(F)cc2)c2nc(C)nn12 [Example 5, 4-(4-fluorobenzyl)-2-methyl-6-{[2′-(5-oxo-4,5-dihydro-1,2,4-oxadiazol-3-yl)biphenyl-4-yl]methyl}-7-propyl[1,2,4]triazolo[1,5-a]pyrimidin-5(4H)-one]
1.4	20	CCCc1c(Cc2ccc(-c3ccccc3-c3noc(=O)[nH]3)cc2)c(=O)n(C2CCC(C)OC2)c2nc(C)nn12 (stereo not shown) [Example 144, 2-methyl-4-(6-methyltetrahydro-2H-pyran-3-yl)-6-{[2′-(5-oxo-4,5-dihydro-1,2,4-oxadiazol-3-yl)biphenyl-4-yl]methyl}-7-propyl[1,2,4]triazolo[1,5-a]pyrimidin-5(4H)-one]
